In paper PMC2132544 (The Journal of Cell Biology, 1997):
Where two headings read alike, the source gives them in different places.

Assays:
[1] = tested on: Shigella flexneri intracellular motility in PtK2 cells; settings: cited from earlier work
[2] = tested on: Shigella flexneri intracellular motility in PtK2 cells; type: cell-based
[3] = microinjected peptide, ref Zeile et al. (1996)

In the case of FEFPPPPTDE [ActA ABM-1 peptide], the “effect on Shigella motility” value [1, 3] is given as “arrested intracellular Shigella motility”.

In the case of Gly-Pro-Pro-Pro-Pro Pro [ABM-2 peptide], the “effect on Shigella motility” value [1, 3] is given as “blocks Shigella actin-based motility”.

For poly- L-proline [poly-L-proline], the “effect on Shigella motility” value ([1]; poly-L-proline intracellular concentration 1 μM, ref Zeile et al., 1996) is given as “failed to inhibit motility”.

B1: full-length vinculin: Full-length 120-kD human platelet vinculin (protein, UniProt P18206 1-1134, looked up)
Vinculin: MPVFHTRTIESILEPVAQQISHLVIMHEEGEVDGKAIPDLTAPVAAVQAAVSNLVRVGKETVQTTEDQILKRDMPPAFIKVENACTKLVQAAQMLQSDPYSVPARDYLIDGSRGILSGTSDLLLTFDEAEVRKIIRVCKGILEYLTVAEVVETMEDLVTYTKNLGPGMTKMAKMIDERQQELTHQEHRVMLVNSMNTVKELLPVLISAMKIFVTTKNSKNQGIEEALKNRNFTVEKMSAEINEIIRVLQLTSWDEDAWASKDTEAMKRALASIDSKLNQAKGWLRDPSASPGDAGEQAIRQILDEAGKVGELCAGKERREILGTCKMLGQMTDQVADLRARGQGSSPVAMQKAQQVSQGLDVLTAKVENAARKLEAMTNSKQSIAKKIDAAQNWLADPNGGPEGEEQIRGALAEARKIAELCDDPKERDDILRSLGEISALTSKLADLRRQGKGDSPEARALAKQVATALQNLQTKTNRAVANSRPAKAAVHLEGKIEQAQRWIDNPTVDDRGVGQAAIRGLVAEGHRLANVMMGPYRQDLLAKCDRVDQLTAQLADLAARGEGESPQARALASQLQDSLKDLKARMQEAMTQEVSDVFSDTTTPIKLLAVAATAPPDAPNREEVFDERAANFENHSGKLGATAEKAAAVGTANKSTVEGIQASVKTARELTPQVVSAARILLRNPGNQAAYEHFETMKNQWIDNVEKMTGLVDEAIDTKSLLDASEEAIKKDLDKCKVAMANIQPQMLVAGATSIARRANRILLVAKREVENSEDPKFREAVKAASDELSKTISPMVMDAKAVAGNISDPGLQKSFLDSGYRILGAVAKVREAFQPQEPDFPPPPPDLEQLRLTDELAPPKPPLPEGEVPPPRPPPPEEKDEEFPEQKAGEVINQPMMMAARQLHDEARKWSSKPGIPAAEVGIGVVAEADAADAAGFPVPPDMEDDYEPELLLMPSNQPVNQPILAAAQSLHREATKWSSKGNDIIAAAKRMALLMAEMSRLVRGGSGTKRALIQCAKDIAKASDEVTRLAKEVAKQCTDKRIRTNLLQVCERIPTISTQLKILSTVKATMLGRTNISDEESEQATEMLVHNAQNLMQSVKETVREAEAASIKIRTDAGFTLRWVRKTPWYQ
For B1, the “effect on bacterial migration speeds” value ([2]; estimated intracellular 0.12 μM (identical to p90)) was “failed to cause any significant change” and the “effect on Shigella intracellular motility” value ([2]; needle concentration 2.2 μM, estimated intracellular concentration 0.22 μM) was “failed to accelerate”.
